This is an account of results in paper PMC5131886 (CPT: Pharmacometrics & Systems Pharmacology, 2016).

Several values for one entry are separate records, joined by “and”; a condition that tells them apart may be missing. Equal entries are not always repeated.

The conditions of data set [1]: cited from earlier work.
Data set [2] concerns plasma protein. To be noted: cited from earlier work.
The test system of data set [3] is VEGFR. To be noted: cited from earlier work.
For data set [4], the system named is sVEGFR2. The experiment in a line: PD indirect response modeling of sVEGFR2 plasma concentrations. Format: in vivo, human. To be noted: HCC patients, following treatment, mean baseline 15.7 µg/L.
The subject of data set [5] is hepatocellular carcinoma. Nature of the data set: Time-to-tumor progression in HCC patients. In kind it is in vivo, human. To be noted: 37.5 mg q.d. with TACE (doxorubicin).
In data set [6] the test system is HCC tumors. Nature of the data set: Tumor volume by DCE-MRI in HCC patients. In kind it is in vivo, human. Particulars: duration of the trial, vs baseline.
Data set [7] is described as follows: Hematological toxicities in the phase II pilot study. Particulars: HCC patients, 37.5 mg q.d. In kind it is in vivo, human.
Data set [8] has as its system hepatocellular carcinoma. Particulars: 50 mg q.d. in 4/2 weeks schedule, advanced HCC; cited from earlier work.
Data set [9] has as its system hepatocellular carcinoma. Particulars: phase III, HCC patients, compared to sorafenib; cited from earlier work.

As for `CCNCCNC(=O)c1c(C)[nH]c(/C=C2\C(=O)Nc3ccc(F)cc32)c1C` [SU12662], in data set [1] (fixed to literature value), the “Q/Fperipheral, intercompartmental clearance (RSE%)” value is recorded as 27.7 (26) L/h and the “V2/Fperipheral, peripheral volume of distribution (RSE%)” value was 345 (22) L. In data set [2], the “fb, bound fraction to plasma protein” value is 0.95. Moreover, the “potency relative to parent drug” value in [3] is “equipotent to the parent drug”.

Turning to `CCN(CC)CCNC(=O)c1c(C)[nH]c(/C=C2\C(=O)Nc3ccc(F)cc32)c1C` [Sunitinib, Sunitinib malate], in [4], the “observed plasma concentrations of sVEGFR2” value is given as “gradually decreased over time”. Moreover, the “median observed TTP” value in [5] is 7 months and 8 months. In addition, the “HCC tumor volumes under treatment” value in data set [6] is given as “remained relatively unchanged compared to their baseline values”. The hematological toxicities entry in data set [7] was “absence of hematological toxicities”. Further, in data set [1] (fixed to literature value), the “Q/Fperipheral, intercompartmental clearance (RSE%)” value is reported as 6.37 (18) L/h; the “V2/Fperipheral, peripheral volume of distribution (RSE%)” value is recorded as 588 (8.7) L; the “ka, first-order absorption rate constant (RSE%)” value is on record as 0.195 (6.8) 1/h. In addition, in data set [1] (fixed), the “fM, fraction of drug metabolized into the active metabolite SU12662” value is recorded as 0.21. In data set [2], the “fb, bound fraction to plasma protein” value is 0.9. Also, in [8], the “median TTP” value is 5.3 months. In [9], the “primary overall survival endpoint” value is listed as “failed its primary OS endpoint” and the toxicities entry is “more frequent toxicities than sorafenib”.
